Experimental data from patent US20220024891A1 (The Board of Regents of the University of Texas System, priority 2018, published 2022).

SMILES | melting point [°C]
CC1CCN(C2CCN(S(=O)(=O)c3ccccc3)CC2)CC1 [compound 5, 4-methyl-1′-(phenylsulfonyl)-1,4′-bipiperidine] | 154 to 156
CC1CCN(C2CCN(S(=O)(=O)c3ccc([N+](=O)[O-])cc3)CC2)CC1 [compound 7, 4-Methyl-1′-((4-nitrophenyl)sulfonyl)-1,4′-bipiperidine] | 165 to 168
CC1CCN(C2CCN(S(=O)(=O)c3ccc(C#N)cc3)CC2)CC1 [compound 9, 4-((4-Methyl-[1,4′-bipiperidin]-1′-yl)sulfonyl)benzonitrile] | 184 to 186
Cc1ccc(S(=O)(=O)N2CCC(N3CCC(C)CC3)CC2)cc1 [compound 11, 4-Methyl-1′-tosyl-1,4′-bipiperidine] | 139 to 142
CCc1ccc(S(=O)(=O)N2CCC(N3CCC(C)CC3)CC2)cc1 [compound 12, 1′-((4-Ethylphenyl)sulfonyl)-4-methyl-1,4′-bipiperidine] | 108 to 110
CC1CCN(C2CCN(S(=O)(=O)c3ccc(C(C)C)cc3)CC2)CC1 [compound 13, 1′-((4-Isopropylphenyl)sulfonyl)-4-methyl-1,4′-bipiperidine] | 144 to 147
CC1CCN(C2CCN(S(=O)(=O)c3ccc(C(C)(C)C)cc3)CC2)CC1 [compound 14, 1′-((4-(Tert-butyl)phenyl)sulfonyl)-4-methyl-1,4′-bipiperidine] | 173 to 176
CC1CCN(C2CCN(S(=O)(=O)c3ccc(C(F)(F)F)cc3)CC2)CC1 [compound 15, 4-Methyl-1′-((4-(trifluoromethyl)phenyl)sulfonyl)-1,4′-bipiperidine] | 175 to 178
CC1CCN(C2CCN(S(=O)(=O)c3ccc(Br)cc3)CC2)CC1 [compound 17, 1′-((4-Bromophenyl)sulfonyl)-4-methyl-1,4′-bipiperidine] | 165 to 168
CCCOc1ccc(S(=O)(=O)N2CCC(N3CCC(C)CC3)CC2)cc1 [compound 18, 4-Methyl-1′-((4-propoxyphenyl)sulfonyl)-1,4′-bipiperidine] | 118 to 121
CCCCOc1ccc(S(=O)(=O)N2CCC(N3CCC(C)CC3)CC2)cc1 [compound 19, 1′-((4-Butoxyphenyl)sulfonyl)-4-methyl-1,4′-bipiperidine] | 137 to 139
CC1CCN(C2CCN(S(=O)(=O)c3ccc(OCc4ccccc4)cc3)CC2)CC1 [compound 20, 1′-((4-(Benzyloxy)phenyl)sulfonyl)-4-methyl-1,4′-bipiperidine] | 157 to 159
CC1CCN(C2CCN(S(=O)(=O)c3ccc(OC(F)(F)F)cc3)CC2)CC1 [compound 21, 4-Methyl-1′-((4-(trifluoromethoxy)phenyl)sulfonyl)-1,4′-bipiperidine] | 168 to 170
COc1cccc(S(=O)(=O)N2CCC(N3CCC(C)CC3)CC2)c1 [compound 23, 1′-((3-Methoxyphenyl)sulfonyl)-4-methyl-1,4′-bipiperidine] | 81 to 83
Cc1cccc(S(=O)(=O)N2CCC(N3CCC(C)CC3)CC2)c1 [compound 26, 4-Methyl-1′-(m-tolylsulfonyl)-1,4′-bipiperidine] | 90 to 93
CC1CCN(C2CCN(S(=O)(=O)c3cccc(C(F)(F)F)c3)CC2)CC1 [compound 27, 4-Methyl-1′-((3-(trifluoromethyl)phenyl)sulfonyl)-1,4′-bipiperidine] | 123 to 125
CC1CCN(C2CCN(S(=O)(=O)c3cccc(Cl)c3)CC2)CC1 [compound 28, 1′-((3-Chlorophenyl)sulfonyl)-4-methyl-1,4′-bipiperidine] | 122 to 124

SMILES | melting point [°C]
CC1CCN(C2CCN(S(=O)(=O)c3cccc(Br)c3)CC2)CC1 [compound 29, 1′-((3-Bromophenyl)sulfonyl)-4-methyl-1,4′-bipiperidine] | 125 to 126
CC1CCN(C2CCN(S(=O)(=O)c3ccccc3Br)CC2)CC1 [compound 30, 1′-((2-Bromophenyl)sulfonyl)-4-methyl-1,4′-bipiperidine] | 82 to 84
COc1ccc(S(=O)(=O)N2CCC(N3CCC(C)CC3)CC2)cc1OC [compound 31, 1′-((3,4-Dimethoxyphenyl)sulfonyl)-4-methyl-1,4′-bipiperidine] | 132 to 134
COc1ccc(OC)c(S(=O)(=O)N2CCC(N3CCC(C)CC3)CC2)c1 [compound 32, 1′-((2,5-Dimethoxyphenyl)sulfonyl)-4-methyl-1,4′-bipiperidine] | 75 to 78
COc1ccc(Br)cc1S(=O)(=O)N1CCC(N2CCC(C)CC2)CC1 [compound 33, 1′-((5-Bromo-2-methoxyphenyl)sulfonyl)-4-methyl-1,4′-bipiperidine] | 98 to 102
COc1cc(C)ccc1S(=O)(=O)N1CCC(N2CCC(C)CC2)CC1 [compound 34, 1′-((2-Methoxy-4-methylphenyl)sulfonyl)-4-methyl-1,4′-bipiperidine] | 95 to 98
CC1CCN(C2CCN(S(=O)(=O)c3ccc([N+](=O)[O-])c(C(F)(F)F)c3)CC2)CC1 [compound 35, 4-Methyl-1′-((4-nitro-3-(trifluoromethyl)phenyl)sulfonyl)-1,4′-bipiperidine] | 175 to 178
Cc1ccc(C#N)c(S(=O)(=O)N2CCC(N3CCC(C)CC3)CC2)c1 [compound 36, 4-Methyl-2-((4-methyl-[1,4′-bipiperidin]-1′-yl)sulfonyl)benzonitrile] | 118 to 121
Cc1ccc(S(=O)(=O)N2CCC(N3CCC(C)CC3)CC2)cc1C [compound 37, 1′-((3,4-Dimethylphenyl)sulfonyl)-4-methyl-1,4′-bipiperidine] | 87 to 89
CCc1cc(Br)ccc1S(=O)(=O)N1CCC(N2CCC(C)CC2)CC1 [compound 38, 1′-((4-Bromo-2-ethylphenyl)sulfonyl)-4-methyl-1,4′-bipiperidine] | 87 to 91
CC1CCN(C2CCN(S(=O)(=O)c3ccc(Cl)c(C(F)(F)F)c3)CC2)CC1 [compound 39, 1′-((4-Chloro-3-(trifluoromethyl)phenyl)sulfonyl)-4-methyl-1,4′-bipiperidine] | 118 to 120
CC1CCN(C2CCN(S(=O)(=O)c3ccc(Cl)c(Cl)c3)CC2)CC1 [compound 40, 1′-((3,4-Dichlorophenyl)sulfonyl)-4-methyl-1,4′-bipiperidine] | 160 to 162
CC1CCN(C2CCN(S(=O)(=O)c3ccc(Cl)cc3Cl)CC2)CC1 [compound 41, 1′-((2,4-Dichlorophenyl)sulfonyl)-4-methyl-1,4′-bipiperidine] | 75 to 78
CC1CCN(C2CCN(S(=O)(=O)c3cc(Cl)cc(Cl)c3)CC2)CC1 [compound 42, 1′-((3,5-Dichlorophenyl)sulfonyl)-4-methyl-1,4′-bipiperidine] | 128 to 131
CC1CCN(C2CCN(S(=O)(=O)c3ccc(F)cc3F)CC2)CC1 [compound 44, 1′-((2,4-Difluorophenyl)sulfonyl)-4-methyl-1,4′-bipiperidine] | 165 to 168
CC1CCN(C2CCN(S(=O)(=O)c3ccc(Br)cc3OC(F)(F)F)CC2)CC1 [compound 45, 1′-((4-Bromo-2-(trifluoromethoxy)phenyl)sulfonyl)-4-methyl-1,4′-bipiperidine] | 108 to 110
